This note sets out measurements from patent publication US7863264B2, “Stabilised compositions having antibacterial activity” (Coloplast A/S, priority 2000, dated 2011).

Series [1] can be described thus: Solubility for 1:1 complexes (silver by atomic absorption spectroscopy). The settings on record: Complex Ag:ligand 1:1; purified water.
Experimental: The tube is placed on a vortex mixer for 1 h (1500 min^−1) and the tube is centrifuged (3000 min^−1/30 min). The water is decanted off and discarded, and another 10 ml purified water is added. This is repeated 2 times, and after the third centrifugation, the liquid decanted off is filtered (0.22 mm PVDF), preserved with nitric acid and the silver concentration is determined by atomic absorption spectroscopy after appropriate dilution.
Determination of solubility of complexes of silver with various ligands.
Series [2] is described as follows: UV light stability test (visual and CIE-Lab colour measurement). Format: physicochemical. The settings on record: for Visual evaluation of complexes after UV-irradiation: UV lamp 30 minutes, cut off approx. 280 nm; for L2 (CIE-Lab colour coordinate L) / b2 (CIE-Lab colour coordinate b) / a2 (CIE-Lab colour coordinate a): after 30 minutes UV irradiation; for L1 (CIE-Lab colour coordinate L) / b1 (CIE-Lab colour coordinate b) / a1 (CIE-Lab colour coordinate a): before irradiation; for Dist. (distance in CIE-Lab colour space): before vs after 30 minutes UV irradiation. Also on record: key to Dist. (distance in CIE-Lab colour space): Dist = √(ΔL²+Δa²+Δb²) in CIE-Lab, before vs after UV. The method, then:
1.5 g of complex was placed in a 50 mm Pyrex petri dish. This was covered with a 56 mm Pyrex lid with a UV-cut off at approx. 280 nm and placed 100 mm under a UV lamp (UVASPOT) 400/T 450W metal halide high pressure lamp, Dr. K. Hönle GmbH) for 30 minutes.
The colour was measured, with a Minolta CR300 colour measurement apparatus (CIE-Lab colour coordinates) before (1) and after (2) irradiation. Measurements were made approx. 1 mm above the complex. The distance in colour-space was calculated using the formula Dist=√{square root over (ΔL^2+Δa^2+Δb^2)}, where “L”, “a”, and “b” are the CIE-Lab Colour Coordinates Solubility for 1:1 Complexes:
Compounds according to the production in example 4 were assessed for stability against UV-light (wave length >280 nm). Milled powders were spread in a 1 mm thick layer in ordinary petri dishes and illuminated by the UV-light for 30 minutes.

The compound `CC(=O)N1C(=O)[N-]C(=O)C1(C)C.[Ag+]` [Ag/1-acetyl-5,5-dimethyl-hydantoin, Silver 1-acetyl-5,5-dimethyl-hydantoinate] had a Solubility in series [1] of 1.100 mg Ag/l.

For `CC1(C)NC(=O)[N-]C1=O.[Ag+]` [Ag/5,5-dimethyl-hydantoin, Silver 5,5-dimethyl-hydantoinate], in series [2], the “Visual evaluation of complexes after UV-irradiation” value (shortened to “Visual evaluation of complexes”) is “White/no trace of discolouration”, the “L2 (CIE-Lab colour coordinate L)” value amounted to 96.84, the “b2 (CIE-Lab colour coordinate b)” value is given as 0.39 and the “L1 (CIE-Lab colour coordinate L)” value is on record as 94.96. Also, in series [2], the “b1 (CIE-Lab colour coordinate b)” value was 0.12 and the “Dist. (distance in CIE-Lab colour space)” value came to 1.90.

Take `O=C1CNC(=O)[N-]1.[Ag+]` [Ag/hydantoin, Silver hydantoinate, reference compound]: in series [2], the “Visual evaluation of complexes” value is recorded as “Dark brown/heavily discoloured”, the “L2 (CIE-Lab colour coordinate L)” value was 26.03, the “a2 (CIE-Lab colour coordinate a)” value was found to be 10.75 and the “b2 (CIE-Lab colour coordinate b)” value was 12.84. Moreover, in series [2], the “L1 (CIE-Lab colour coordinate L)” value was found to be 96.67, the “a1 (CIE-Lab colour coordinate a)” value is reported as 0.06, the “b1 (CIE-Lab colour coordinate b)” value is 2.62 and the “Dist. (distance in CIE-Lab colour space)” value amounted to 72.17.

As for “Silver 5,5-diethyl-hydantoinate [Ag/5,5-diethyl-hydantoin]”, in series [2], the “Visual evaluation of complexes” value is recorded as “White/no trace of discolouration”, the “L2 (CIE-Lab colour coordinate L)” value is given as 94.05, the “b2 (CIE-Lab colour coordinate b)” value is 2.03 and the “L1 (CIE-Lab colour coordinate L)” value is listed as 96.76. Further, in series [2], the “b1 (CIE-Lab colour coordinate b)” value was found to be 0.67 and the “Dist. (distance in CIE-Lab colour space)” value was 3.05.

With “Silver 5-methyl-5-isobutyl-hydantoinate [Ag/5-isobutyl-5-methyl-hydantoin]”, in series [2], the “Visual evaluation of complexes” value was “White/no trace of discolouration”, the “L2 (CIE-Lab colour coordinate L)” value is reported as 92.65, the “b2 (CIE-Lab colour coordinate b)” value turned out to be 1.74 and the “L1 (CIE-Lab colour coordinate L)” value worked out at 92.4. Moreover, in series [2], the “a1 (CIE-Lab colour coordinate a)” value is 0.03, the “b1 (CIE-Lab colour coordinate b)” value was 0.42 and the “Dist. (distance in CIE-Lab colour space)” value is 1.36.

With “Silver allantoinate [Ag-allantoin 1:1, reference compound]”, in series [2], the “Visual evaluation of complexes” value is recorded as “Dark brown/heavily discoloured”, the “L2 (CIE-Lab colour coordinate L)” value was 32.7, the “a2 (CIE-Lab colour coordinate a)” value was 14.71 and the “b2 (CIE-Lab colour coordinate b)” value was 28.41. In addition, in series [2], the “L1 (CIE-Lab colour coordinate L)” value came out at 92.98, the “b1 (CIE-Lab colour coordinate b)” value is on record as 2.3 and the “Dist. (distance in CIE-Lab colour space)” value was 67.44. For the same compound, in series [2] (complex made according to U.S. Pat. No. 2,336,131, UV test not meaningful), the “discolouration of the product” value is given as “discoloured extremely easily”.
